{"source": "paper PMC8776995", "about": "(Frontiers in Chemistry, 2022)", "system": "CCND1, CCNA2, CCNB1, CDK2, CDK6 RNA in PC-9 cells", "assay": "qPCR assay for cell cycle-related gene analysis", "type": "cell-based, human", "settings": "for RQ / RQ, CCNA / RQ, CCNB / RQ, CCND1 / RQ, CDK6 / RQ (CDK2): endogenous control b-Actin, reference sample NC; for CDK6 relative mRNA expression (fold of NC): normalised to beta-Actin, relative to NC = 1", "source_text": "To better understand the mechanisms underlying cell cycle arrest induced by e4 and e12 in NSCLC cells, we assessed the expression levels of a few genes involved in cell cycle regulation, including cyclin D1 (CCND1), cyclin A2 (CCNA2), cyclin B1 (CCNB1), cyclin-dependent kinase 2 (CDK2), and cyclin-dependent kinase 6 (CDK6) in PC-9 by qPCR. […] CCNA2 is known to bind and activate CDK2 and thus promotes the transition through G1/S and G2/M. CCNB1 and CCND1 are essential to mitosis and G1/S transition respectively. While G2/M arrest weas not detected, the changes in these gene expression profiles interpret the G1/S arrests in PC-9 cells treated with e4 and e12. PC-9 cells exposed to the compounds for various periods should be examined further.\nTotal RNA of cells was extracted and cDNA was synthesized. The primers for the target products were designed as in Table 3.", "key": {"[1]": {"settings": "PC-9, 16 h, compared with DMSO control"}}, "note": "Where “and” joins values, the source holds several entries; their conditions need not be identical. Equal values may be shown once.", "data": [{"smiles": "COCCOc1cc2ncnc(Nc3cccc(-c4cn(Cc5cc(Br)cc(Br)c5)nn4)c3)c2cc1OCCOC", "note": "[e4, [6,7-Bis-(2-methoxy-ethoxy)-quinazolin-4-yl]-{3-[1-(3,5-dibromo-benzyl)-1H-[1,2,3]triazol-4-yl]-phenyl}-amine]", "values": [{"measurement": "2^ΔΔCт CCNB", "setting": "4uM, Repeat 1-3, relative to NC = 1", "value": "0.8081 and 0.8617 and 0.9138"}, {"measurement": "2^ΔΔCт CCNB", "setting": "8uM, Repeat 1-3, relative to NC = 1", "value": "0.7848 and 0.9105 and 0.7783"}, {"measurement": "2^ΔΔCт CCNB", "setting": "12uM, Repeat 1-3, relative to NC = 1", "value": "0.736 and 0.7897 and 1.003"}, {"measurement": "2^ΔΔCт CCND1", "setting": "CCND1, 4uM, Repeat 1-3, relative to NC = 1", "value": "0.8337 and 1.076 and 0.8297"}, {"measurement": "2^ΔΔCт CCND1", "setting": "CCND1, 8uM, Repeat 1-3, relative to NC = 1", "value": "0.7172 and 1.068 and 0.8923"}, {"measurement": "2^ΔΔCт CCND1", "setting": "CCND1, 12uM, Repeat 1-3, relative to NC = 1", "value": "0.6074 and 0.7441 and 0.7112"}, {"measurement": "2^ΔΔCт", "setting": "CCND1, 12uM, normalized to WT (NC), run 20201020-2", "value": 0.7112}, {"measurement": "RQ", "setting": "CCND1 mRNA, 4uM", "value": 0.8297}, {"measurement": "RQ", "setting": "CCND1 mRNA, 8uM", "value": 0.8923}, {"measurement": "RQ", "setting": "CCND1 mRNA, 12uM", "value": 0.7112}, {"measurement": "2^ΔΔCт CDK2", "setting": "CDK2, 4uM, Repeat 1-3, relative to NC = 1", "value": "1.17 and 1.2056 and 1.028"}, {"measurement": "2^ΔΔCт CDK2", "setting": "CDK2, 8uM, Repeat 1-3, relative to NC = 1", "value": "1.1688 and 1.551 and 1.159"}, {"measurement": "2^ΔΔCт CDK2", "setting": "CDK2, 12uM, Repeat 1-3, relative to NC = 1", "value": "0.9257 and 1.095 and 1.173"}, {"measurement": "RQ", "setting": "CDK2 mRNA, 4uM", "value": 1.028}, {"measurement": "RQ", "setting": "CDK2 mRNA, 8uM", "value": 1.159}, {"measurement": "RQ", "setting": "CDK2 mRNA, 12uM", "value": 1.173}, {"measurement": "2^ΔΔCт CDK6", "setting": "CDK6, 4uM, Repeat 1-3, relative to NC = 1", "value": "0.8111 and 1.387 and 0.8685"}, {"measurement": "2^ΔΔCт CDK6", "setting": "CDK6, 12uM, Repeat 1-3, relative to NC = 1", "value": "1.051 and 1.348 and 1.109"}, {"measurement": "RQ", "setting": "CDK6 mRNA, 4uM", "value": 0.8685}, {"measurement": "RQ", "setting": "CDK6 mRNA, 8uM", "value": 0.637}, {"measurement": "RQ", "setting": "CDK6 mRNA, 12uM", "value": 1.109}, {"measurement": "RNA expression of CCND1", "setting": "PC-9, 12 μM, 16 h", "value": "negatively regulated"}, {"measurement": "RNA level of CCNA2", "setting": "[1]", "value": "significantly decreased"}, {"measurement": "RNA level of CCNB1", "setting": "[1]", "value": "significantly decreased"}, {"measurement": "RQ, CCNA", "setting": "qPCR SYBR Green, CCNA mRNA, 4uM", "value": 0.8165}, {"measurement": "RQ, CCNA", "setting": "qPCR SYBR Green, CCNA mRNA, 8uM", "value": 0.778}, {"measurement": "RQ, CCNA", "setting": "qPCR SYBR Green, CCNA mRNA, 12uM", "value": 0.5446}, {"measurement": "RQ, CCNB", "setting": "qPCR SYBR Green, CCNB mRNA, 4uM", "value": 1.076}, {"measurement": "RQ, CCNB", "setting": "qPCR SYBR Green, CCNB mRNA, 8uM", "value": 1.137}, {"measurement": "RQ, CCNB", "setting": "qPCR SYBR Green, CCNB mRNA, 12uM", "value": 0.9859}, {"measurement": "RQ, CCND1", "setting": "qPCR SYBR Green, CCND1 mRNA, 4uM", "value": 1.076}, {"measurement": "RQ, CCND1", "setting": "qPCR SYBR Green, CCND1 mRNA, 8uM", "value": 0.7718}, {"measurement": "RQ, CCND1", "setting": "qPCR SYBR Green, CCND1 mRNA, 12uM", "value": 0.7441}, {"measurement": "RQ, CDK6", "setting": "qPCR SYBR Green, CDK6 mRNA, 4uM", "value": 1.387}, {"measurement": "RQ, CDK6", "setting": "qPCR SYBR Green, CDK6 mRNA, 8uM", "value": 1.7457}, {"measurement": "RQ, CDK6", "setting": "qPCR SYBR Green, CDK6 mRNA, 12uM", "value": 1.348}, {"measurement": "CDK6 relative mRNA expression (fold of NC, normalised to beta-Actin)", "setting": "qPCR, SYBR Green, 8uM", "value": 1.746}, {"measurement": "CDK6 relative mRNA expression (fold of NC)", "setting": "qPCR, SYBR Green, 8uM", "value": 0.9943}, {"measurement": "CDK6 relative mRNA expression (fold of NC)", "setting": "qPCR, SYBR Green, 12uM", "value": 1.109}, {"measurement": "2^ΔΔCт CDK6", "setting": "recalculated summary 20201020-1, normalized to WT (NC), CDK6, 4uM", "value": 1.387}, {"measurement": "2^ΔΔCт CDK6", "setting": "recalculated summary 20201020-1, normalized to WT (NC), CDK6, 8uM", "value": 1.746}, {"measurement": "RQ, CCNA", "setting": "target CCNA, 4uM", "value": 0.7613}, {"measurement": "RQ, CCNA", "setting": "target CCNA, 8uM", "value": 0.7109}, {"measurement": "RQ, CCNA", "setting": "target CCNA, 12uM", "value": 0.5857}, {"measurement": "RQ, CCNB", "setting": "target CCNB, 4uM", "value": 0.8081}, {"measurement": "RQ, CCNB", "setting": "target CCNB, 8uM", "value": 0.7848}, {"measurement": "RQ, CCNB", "setting": "target CCNB, 12uM", "value": 0.736}, {"measurement": "RQ, CCND1", "setting": "target CCND1, 4uM", "value": 0.8337}, {"measurement": "RQ, CCND1", "setting": "target CCND1, 8uM", "value": 0.7172}, {"measurement": "RQ, CCND1", "setting": "target CCND1, 12uM", "value": 0.6074}, {"measurement": "RQ (CDK2)", "setting": "target CDK2, 8uM", "value": 1.1688}, {"measurement": "RQ (CDK2)", "setting": "target CDK2, 12uM", "value": 0.9257}, {"measurement": "RQ, CDK6", "setting": "target CDK6, 4uM", "value": 0.8111}, {"measurement": "RQ, CDK6", "setting": "target CDK6, 8uM", "value": 0.824}, {"measurement": "RQ, CDK6", "setting": "target CDK6, 12uM", "value": 1.051}]}]}
